Here are results for 22 compounds from patent US8486966B2, “9-(pyrazol-3-yl)-9H-purine-2-amine and 3-(pyrazol-3-yl) -3H-imidazo[4,5-B] pyridin-5-amine derivatives and their use for the treatment of cancer” (Astrazeneca AB, priority 2007, dated 2013).

SMILES strings stand for the structures.

Chain of human JAK2 (O60674 808-1132 limits assumed): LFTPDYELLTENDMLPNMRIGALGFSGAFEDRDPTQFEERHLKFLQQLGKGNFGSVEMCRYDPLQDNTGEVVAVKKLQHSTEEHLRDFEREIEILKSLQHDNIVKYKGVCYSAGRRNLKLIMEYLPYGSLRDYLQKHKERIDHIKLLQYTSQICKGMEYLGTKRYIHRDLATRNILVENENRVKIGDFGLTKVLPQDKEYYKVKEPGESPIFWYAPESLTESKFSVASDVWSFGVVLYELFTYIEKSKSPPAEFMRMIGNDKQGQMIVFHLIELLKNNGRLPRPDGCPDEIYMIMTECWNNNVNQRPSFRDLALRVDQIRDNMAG

The first assay concerns the target human JAK2 (Homo sapiens (Human), UniProt O60674). Put plainly: JAK2 kinase Alphascreen assay. Type of assay: biochemical. The settings on record: 150 pM JAK2 enzyme, 15 μM ATP, 60 minutes, room temperature; read-out: JAK inhibitory activity IC50. The method, then:
JAK2 kinase activity was determined by measuring the kinase's ability to phosphorylate synthetic tyrosine residues within a generic polypeptide substrate using an Amplified Luminescent Proximity Assay (Alphascreen) technology (PerkinElmer, 549 Albany Street, Boston, Mass.).
To measure JAK2 kinase activity, a commercially available purified enzyme may be used. The enzyme may be a C-terminal His6-tagged, recombinant, human JAK2, amino acids 808-end, (Genbank Accession number NM 004972) expressed by baculovirus in Sf21 cells (Upstate Biotechnology MA). After incubation of the kinase with a biotinylated substrate and adenosine triphosphate (ATP) for 60 minutes at room temperature, the kinase reaction may be stopped by the addition of 30 mM ethylenediaminetetraacetic acid (EDTA). The reaction may be performed in 384 well microtitre plates and the reaction products may be detected with the addition of streptavidin coated Donor Beads and phosphotyrosine-specific antibodies coated Acceptor Beads using the EnVision Multilabel Plate Reader after an overnight incubation at room temperature.
Background: In Alpha technology, singlet oxygen from a donor bead excites a nearby acceptor bead.
As to `Cc1cc(-n2cnc3ccc(N[C@@H](C)c4ccc(F)cn4)nc32)n[nH]1` [Example 17, N-[(1S)-1-(5-Fluoropyridin-2-yl)ethyl]-3-(5-methyl-1H-pyrazol-3-yl)-3H-imidazo[4,5-b]pyridin-5-amine], the half-inhibitory concentration (IC50) came out at 3 nM.

In another assay the target is human Trk A kinase (Homo sapiens (Human), UniProt P04629). The assay can be described thus: Trk A kinase Alphascreen assay. Format: biochemical. The settings on record: 0.838 ng/ml Trk A, 70 μM ATP, 20 minutes, room temperature; read-out: Trk inhibitory activity IC50. The method, then: Trk A kinase activity was determined by measuring the kinase's ability to phosphorylate synthetic tyrosine residues within a generic polypeptide substrate using an Amplified Luminescent Proximity Assay (Alphascreen) technology (PerkinElmer, 549 Albany Street, Boston, Mass.).
Chain of human Trk A kinase (P04629 442-796): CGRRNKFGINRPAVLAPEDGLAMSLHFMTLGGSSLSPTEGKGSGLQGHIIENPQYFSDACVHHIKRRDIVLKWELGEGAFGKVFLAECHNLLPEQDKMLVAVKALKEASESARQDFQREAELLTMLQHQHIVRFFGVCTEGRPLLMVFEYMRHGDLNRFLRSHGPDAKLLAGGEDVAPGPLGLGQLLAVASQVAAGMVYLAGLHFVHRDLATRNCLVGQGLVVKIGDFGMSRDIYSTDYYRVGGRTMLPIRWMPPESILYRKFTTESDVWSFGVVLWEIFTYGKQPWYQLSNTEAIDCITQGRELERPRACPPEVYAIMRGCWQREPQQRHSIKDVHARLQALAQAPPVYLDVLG
To measure Trk A kinase activity, the intracellular domain of a HIS-tagged human Trk A kinase (amino acids 442-796 of Trk A, Swiss-Prot Primary Accession Number P04629) may be expressed in SF9 cells and purified using standard nickel column chromatography. After incubation of the kinase with a biotinylated substrate and adenosine triphosphate (ATP) for 20 minutes at room temperature, the kinase reaction may be stopped by the addition of 30 mM ethylenediaminetetraacetic acid (EDTA). The reaction may be performed in 384 well microtitre plates and the reaction products may be detected with the addition of strepavidin coated Donor Beads and phosphotyrosine-specific antibodies coated Acceptor Beads using the EnVision Multilabel Plate Reader after an overnight incubation at room temperature.
As to `CC(C)Oc1cc(-n2cnc3ccc(N[C@@H](C)c4ccc(F)cn4)nc32)n[nH]1` [Example 1, N-[(1S)-1-(5-fluoropyridin-2-yl)ethyl]-3-(5-isopropoxy-1H-pyrazol-3-yl)-3H-imidazo[4,5-b]pyridin-5-amine], the half-maximal inhibitory concentration (IC50) amounted to 3 nM.

`C[C@H](Nc1ccc2ncn(-c3cc(C4CC4)[nH]n3)c2n1)c1ccc(F)cn1` [Example 2, 3-(5-Cyclopropyl-1H-pyrazol-3-yl)-N-[(1S)-1-(5-fluoropyridin-2-yl)ethyl]-3H-imidazo[4,5-b]pyridin-5-amine]: the IC50 is 3 nM.

As for `C[C@H](Nc1ncc2ncn(-c3cc(C4CC4)[nH]n3)c2n1)c1ncc(F)cn1` [Example 4, 9-(5-Cyclopropyl-1H-pyrazol-3-yl)-N-[(1S)-1-(5-fluoropyrimidin-2-yl)ethyl]-9H-purin-2-amine], the 50% inhibitory concentration (IC50) turned out to be 12 nM. With `C[C@H](Nc1ncc2ncn(-c3cc(C4CC4)[nH]n3)c2n1)c1ccc(F)cn1` [Example 5, 9-(5-Cyclopropyl-1H-pyrazol-3-yl)-N-[(1S)-1-(5-fluoropyridin-2-yl)ethyl]-9H-purin-2-amine], the IC50 was 5 nM. With `CC(C)Oc1cc(-n2cnc3ccc(N[C@@H](C)c4ncc(F)cn4)nc32)n[nH]1` [Example 6, N-[(1S)-1-(5-Fluoropyrimidin-2-yl)ethyl]-3-(5-isopropoxy-1H-pyrazol-3-yl)-3H-imidazo[4,5-b]pyridin-5-amine], the half-maximal inhibitory concentration (IC50) worked out at 3 nM. On to `CC(C)Oc1cc(-n2cnc3ccc(N[C@@H](CO)c4ccc(F)cn4)nc32)n[nH]1` [Example 7, (2R)-2-(5-Fluoropyridin-2-yl)-2-{[3-(5-isopropoxy-1H-pyrazol-3-yl)-3H-imidazo[4,5-b]pyridin-5-yl]amino}ethanol], for which the concentration for half-maximal inhibition (IC50) was found to be 3 nM. Still for that read-out and setting: as for `CCOc1cc(-n2cnc3ccc(N[C@@H](CO)c4ccc(F)cn4)nc32)n[nH]1` [Example 8, (2R)-2-{[3-(5-Ethoxy-1H-pyrazol-3-yl)-3H-imidazo[4,5-b]pyridin-5-yl]amino}-2-(5-fluoropyridin-2-yl)ethanol], the figure is 3 nM; as for `CCOc1cc(-n2cnc3ccc(N[C@@H](C)c4ncc(F)cn4)nc32)n[nH]1` [Example 9, 3-(5-Ethoxy-1H-pyrazol-3-yl)-N-[(1S)-1-(5-fluoropyrimidin-2-yl)ethyl]-3H-imidazo[4,5-b]pyridin-5-amine], 3 nM; as for `CCOc1cc(-n2cnc3ccc(N[C@@H](C)c4ccc(F)cn4)nc32)n[nH]1` [Example 10, 3-(5-Ethoxy-1H-pyrazol-3-yl)-N-[(1S)-1-(5-fluoropyridin-2-yl)ethyl]-3H-imidazo[4,5-b]pyridin-5-amine], 3 nM. `CC(C)Oc1cc(-n2cnc3cnc(N[C@@H](C)c4ccc(F)cn4)nc32)n[nH]1` [Example 11, N-[(1S)-1-(5-Fluoropyridin-2-yl)ethyl]-9-(5-isopropoxy-1H-pyrazol-3-yl)-9H-purin-2-amine]: the IC50 came out at 3 nM. For `CC(C)Oc1cc(-n2cnc3cnc(N[C@@H](C)c4ncc(F)cn4)nc32)n[nH]1` [Example 12, N-[(1S)-1-(5-Fluoropyrimidin-2-yl)ethyl]-9-(5-isopropoxy-1H-pyrazol-3-yl)-9H-purin-2-amine], the IC50 worked out at 3 nM.

Regarding `CC[C@H](Nc1ccc2ncn(-c3cc(OC(C)C)[nH]n3)c2n1)c1ccc(F)cn1` [Example 13, N-[(1S)-1-(5-Fluoropyridin-2-yl)propyl]-3-(5-isopropoxy-1H-pyrazol-3-yl)-3H-imidazo[4,5-b]pyridin-5-amine], the IC50 amounted to 6 nM. Consider `CC(C)Oc1cc(-n2cnc3cc(Cl)c(N[C@@H](C)c4ccc(F)cn4)nc32)n[nH]1` [Example 14, 6-Chloro-N-[(1S)-1-(5-fluoropyridin-2-yl)ethyl]-3-(5-isopropoxy-1H-pyrazol-3-yl)-3H-imidazo[4,5-b]pyridin-5-amine], for which the IC50 was 4 nM. Consider `Cc1cc(-n2cnc3cc(F)c(N[C@@H](C)c4ncc(F)cn4)nc32)n[nH]1` [Example 15, 6-Fluoro-N-[(1S)-1-(5-fluoropyrimidin-2-yl)ethyl]-3-(5-methyl-1H-pyrazol-3-yl)-3H-imidazo[4,5-b]pyridin-5-amine], for which the 50% inhibitory concentration (IC50) came out at 3810 nM. As to `Cc1cc(-n2cnc3ccc(N[C@@H](C)c4ncc(F)cn4)nc32)n[nH]1` [Example 16, N-[(1S)-1-(5-Fluoropyrimidin-2-yl)ethyl]-3-(5-methyl-1H-pyrazol-3-yl)-3H-imidazo[4,5-b]pyridin-5-amine], the half-maximal inhibitory concentration (IC50) was found to be 61 nM. For `Cc1cc(-n2cnc3ccc(N[C@@H](C)c4ccc(F)cn4)nc32)n[nH]1` [Example 17, N-[(1S)-1-(5-Fluoropyridin-2-yl)ethyl]-3-(5-methyl-1H-pyrazol-3-yl)-3H-imidazo[4,5-b]pyridin-5-amine], the IC50 was 14 nM.

Take `Cc1cc(-n2cnc3cnc(N[C@@H](C)c4ccc(F)cn4)nc32)n[nH]1` [Example 18, N-[(1S)-1-(5-Fluoropyridin-2-yl)ethyl]-9-(5-methyl-1H-pyrazol-3-yl)-9H-purin-2-amine]: the 50% inhibitory concentration (IC50) turned out to be 311 nM. Consider `Cc1cc(-n2cnc3c(C(=O)N4CCOCC4)nc(N[C@@H](C)c4ncc(F)cn4)nc32)n[nH]1` [Example 19, N-[(1S)-1-(5-Fluoropyrimidin-2-yl)ethyl]-9-(5-methyl-1H-pyrazol-3-yl)-6-(morpholin-4-ylcarbonyl)-9H-purin-2-amine], for which the concentration for half-maximal inhibition (IC50) was determined as 7250 nM.

`Cc1cc(-n2cnc3c(NC4CCOCC4)nc(N[C@@H](C)c4ccc(F)cn4)nc32)n[nH]1` [Example 20, N^2-[(1S)-1-(5-Fluoropyridin-2-yl)ethyl]-9-(5-methyl-1H-pyrazol-3-yl)-N^6-(tetrahydro-2H-pyran-4-yl)-9H-purine-2,6-diamine]: the IC50 came to 475 nM.

As to `COc1nc(N[C@@H](C)c2ccc(F)cn2)nc2c1ncn2-c1cc(C)[nH]n1` [Example 21, N-[(1S)-1-(5-Fluoropyridin-2-yl)ethyl]-6-methoxy-9-(5-methyl-1H-pyrazol-3-yl)-9H-purin-2-amine], the concentration for half-maximal inhibition (IC50) amounted to 96 nM. Regarding `Cc1cc(-n2cnc3c(N4CCOCC4)nc(N[C@@H](C)c4ccc(F)cn4)nc32)n[nH]1` [Example 22, N-[(1S)-1-(5-Fluoropyridin-2-yl)ethyl]-9-(5-methyl-1H-pyrazol-3-yl)-6-morpholin-4-yl-9H-purin-2-amine], the IC50 was 773 nM. On the same count and under the same terms, as for `CCOc1cc(-n2cnc3ccc(N[C@@H](CC)c4ccc(F)cn4)nc32)n[nH]1` [Example 23, 3-(5-Ethoxy-1H-pyrazol-3-yl)-N-[(1S)-1-(5-fluoropyridin-2-yl)propyl]-3H-imidazo[4,5-b]pyridin-5-amine], the figure is 3 nM.

A word on the IC50: it is the midpoint of a concentration-inhibition curve.
